{"source": "paper PMC9601193", "about": "“Intracellular Metabolomics Identifies Efflux Transporter Inhibitors in a Routine Caco-2 Cell Permeability Assay—Biological Implications” (Cells, 2022)", "key": {"MRP2 [1]": {"molecular_target": "T1, MRP2 (Homo sapiens, UniProt Q92887)", "T1 construct": "express major uptake and efflux transporters on the apical and basal membranes, including the key efflux transporters Pgp, BCRP and MRP2; host or cells: Caco-2 (HTB-37); C2BBe1 clone WT/KO cells from SOLVO Biotechnology for the knockout comparisons", "T1 sequence (Q92887 whole entry)": "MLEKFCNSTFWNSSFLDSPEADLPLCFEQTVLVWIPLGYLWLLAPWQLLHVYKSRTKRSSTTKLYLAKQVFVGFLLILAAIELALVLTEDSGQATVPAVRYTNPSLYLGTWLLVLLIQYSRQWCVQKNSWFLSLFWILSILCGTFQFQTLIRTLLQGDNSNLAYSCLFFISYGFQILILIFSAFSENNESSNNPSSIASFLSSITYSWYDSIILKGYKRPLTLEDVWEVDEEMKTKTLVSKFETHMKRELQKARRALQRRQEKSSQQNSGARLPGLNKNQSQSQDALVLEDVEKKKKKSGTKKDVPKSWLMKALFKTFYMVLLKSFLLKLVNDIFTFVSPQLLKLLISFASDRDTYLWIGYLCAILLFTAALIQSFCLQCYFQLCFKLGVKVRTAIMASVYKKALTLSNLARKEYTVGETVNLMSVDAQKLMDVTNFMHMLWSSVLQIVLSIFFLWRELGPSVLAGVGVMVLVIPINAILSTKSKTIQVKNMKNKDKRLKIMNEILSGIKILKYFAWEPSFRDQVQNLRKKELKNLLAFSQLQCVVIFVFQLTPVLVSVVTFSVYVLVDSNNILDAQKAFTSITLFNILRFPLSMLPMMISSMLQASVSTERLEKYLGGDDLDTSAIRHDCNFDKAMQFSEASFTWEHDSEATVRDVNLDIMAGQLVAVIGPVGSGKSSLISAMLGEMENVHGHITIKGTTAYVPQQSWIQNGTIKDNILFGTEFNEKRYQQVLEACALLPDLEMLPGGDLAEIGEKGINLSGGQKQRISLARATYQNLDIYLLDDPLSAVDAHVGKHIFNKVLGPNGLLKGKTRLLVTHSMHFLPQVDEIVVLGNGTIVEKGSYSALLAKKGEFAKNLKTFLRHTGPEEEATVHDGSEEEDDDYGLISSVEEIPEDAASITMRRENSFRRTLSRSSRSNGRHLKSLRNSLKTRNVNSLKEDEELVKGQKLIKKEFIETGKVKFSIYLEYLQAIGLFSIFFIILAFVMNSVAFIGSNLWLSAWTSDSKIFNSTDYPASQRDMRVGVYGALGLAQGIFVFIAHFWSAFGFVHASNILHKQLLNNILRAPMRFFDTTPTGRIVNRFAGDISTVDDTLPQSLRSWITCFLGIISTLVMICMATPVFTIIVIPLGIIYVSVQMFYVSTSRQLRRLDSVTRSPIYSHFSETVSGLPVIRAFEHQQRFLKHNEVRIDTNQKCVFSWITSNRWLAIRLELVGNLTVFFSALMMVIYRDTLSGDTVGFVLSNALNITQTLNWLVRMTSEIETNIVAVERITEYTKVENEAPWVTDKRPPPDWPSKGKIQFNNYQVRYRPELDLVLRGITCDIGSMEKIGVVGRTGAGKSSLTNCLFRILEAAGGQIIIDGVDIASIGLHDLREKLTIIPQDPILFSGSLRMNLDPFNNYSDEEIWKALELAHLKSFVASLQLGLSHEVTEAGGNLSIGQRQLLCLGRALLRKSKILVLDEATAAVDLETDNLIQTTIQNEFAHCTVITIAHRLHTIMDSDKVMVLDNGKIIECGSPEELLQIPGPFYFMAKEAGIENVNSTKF", "assay": "Caco-2 efflux of MRP2 probe CDCF (fluorescence) with/without inhibitor or in MRP2 KO cells", "assay_type": "cell-based", "conditions": "for specificity of MRP2 inhibitors (functional assessment, Supplementary Table S1): Caco-2", "description": "(§1) The compounds were first added into either the apical or basolateral chamber in the absence or presence of the relevant inhibitor. After 2 h incubation with the compounds, the samples from the apical and basolateral chamber were collected.\nFor MRP2 functional analysis, CDCF-DA (non-fluorescent diacetate), was added on the apical or basal chamber which diffuses into the cells and is converted into fluorescent CDCF (MRP2 substrate) by intracellular esterases. Efflux of the fluorescent CDCF was monitored by transferring 75 μL of samples from both the donor and acceptor compartments to a clear-bottomed black 96-well plate. The CDCF fluorescence was then measured on the plate reader with 485 (exc)/528 (em) nm wavelength.\n(§2) The apparent permeability (Papp) of the substrate was calculated as follows: • Papp = (dQ/dt)/(C0 × Vr A) • dQ/dt = slope of the linear portion of the permeated amount versus time curve (µmol/l/s) • A = effective surface area of the Transwell insert (0.11 cm^2) • C0 = initial concentration of the substrate (µmol/L) • Vr = the volume of the receiver chamber (mL).\n(§3) The efflux ratio was calculated as follows: • Papp (B to A)/Papp (A to B)\n(§4) Pgp, BCRP and MRP2 knockout (stable) Caco-2 cells (C2BBe1) were kindly provided by SOLVO Biotechnology (Szeged, Hungary). The individual transporters were knocked out using zinc finger nuclease technology. The knockout cell lines were cultured for 21 days except BCRP KO, which was grown for 25 days in a 96-well format. Assay conditions were in accordance with the Caco-2 assay from our lab. Transport analysis was performed according to the protocol described above. After transport experiments, metabolites were extracted from Caco-2 cells and analyzed according to the protocols described below."}, "BCRP [2]": {"molecular_target": "T2, BCRP (Homo sapiens, UniProt Q9UNQ0)", "T2 sequence (Q9UNQ0 1-655)": "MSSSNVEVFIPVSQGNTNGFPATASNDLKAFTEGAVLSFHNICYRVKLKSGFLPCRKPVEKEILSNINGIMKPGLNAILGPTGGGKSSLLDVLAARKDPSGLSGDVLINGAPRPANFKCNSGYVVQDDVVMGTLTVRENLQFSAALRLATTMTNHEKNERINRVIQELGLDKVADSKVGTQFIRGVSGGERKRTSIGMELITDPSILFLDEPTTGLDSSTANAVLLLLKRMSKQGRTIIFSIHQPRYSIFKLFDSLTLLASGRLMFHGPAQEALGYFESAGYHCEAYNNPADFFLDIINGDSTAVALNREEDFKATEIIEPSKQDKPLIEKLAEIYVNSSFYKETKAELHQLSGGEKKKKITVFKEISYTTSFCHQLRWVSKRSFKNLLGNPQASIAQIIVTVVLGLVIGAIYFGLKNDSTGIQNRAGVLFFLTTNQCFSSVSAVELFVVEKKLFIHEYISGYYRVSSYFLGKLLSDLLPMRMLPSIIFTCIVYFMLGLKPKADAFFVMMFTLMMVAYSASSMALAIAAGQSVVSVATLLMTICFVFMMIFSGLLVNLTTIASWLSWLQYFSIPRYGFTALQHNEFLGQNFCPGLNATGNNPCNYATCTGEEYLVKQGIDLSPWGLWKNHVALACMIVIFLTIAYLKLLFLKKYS", "assay": "Intracellular LC-MS metabolomic signature and inhibition score for BCRP in Caco-2 cells", "conditions": "Ko143 10 µM, Fumitremorgin C 5 µM, novobiocin 30 µM; Caco-2, 2 h", "method": "First, 2 × 10^4 cells/well were seeded on a 96 Transwell™ thin film polycarbonate membrane (0.4 µM pore size). Plates were incubated at 37 °C, 5% CO2 and 95% humidity. The cells were grown for 10 days and then treated on day 10. The monolayer integrity was checked prior to the experiment by measuring the transepithelial electrical resistance (TEER) using a TEER electrode. All TEER values ranged between 2000 and 4000 ohms∗cm^2, values greater than 1000 ohms∗cm^2 were used as an indicator of an intact monolayer.\nMK571 (200 µM, n = 3) and Benzbromarone (66.7 µM, n= 1) were used to inhibit MRP2 activity. The compounds were diluted to the final concentration in HBSS (pH 7.4); 1% DMSO in HBSS was used as a control. Before treatment, media was removed, and the cells were washed twice with HBSS. […]\nMultiQuant® software (v 3.0.3) was used for peak integration and the peak area for each metabolite was then exported. All data sets were normalized using the total sum of the quantified analyte area. The data were analyzed by SIMCA® 15/17 for multivariate analysis including Orthogonal Partial Least Squares–Discriminant Analysis (OPLS-DA). […]\nThe percentage difference for the normalized area of each (transporter) signature metabolite was calculated using the following equation:100 × (treated—control)/control"}, "MRP2 [3]": {"molecular_target": "T1, MRP2", "assay": "Intracellular LC-MS metabolomic signature and inhibition score for MRP2 in Caco-2 cells", "assay_type": "cell-based", "description": "(§5) Samples were dried using a nitrogen evaporator.\n(§6) The sample injection volume was 2 μL. Sample data were acquired using Analyst software. All the samples were randomized to avoid analytical bias."}, "MTHFR": {"tested_on": "MTHFR", "assay": "Protein expression by Simple Western (WES/JESS) in Caco-2 cells: MTHFR", "assay_type": "cell-based, human", "conditions": "24 h; zosuquidar 5 µM, Ko143 10 µM, MK571 200 µM; normalized to vinculin", "description": "(§7) Cells were grown in a 6-well plate for 48 h and in a transwell for 10 days. Cells in the 6-well plates were incubated with inhibitors for 24 h and the cells in the transwell plate were incubated with inhibitors for 2 h to replicate metabolic effects. Protein extraction was performed once the cells were 90% confluent. Lysis buffer solution was prepared by adding 200 µL of phosphatase inhibitor cocktail 2 and 3 (Sigma-Aldrich, Dorset, UK), 100 µL of 100 mM PMSF protease inhibitor and 1 mL of CST lysis buffer (Cell Signaling Technology, Danvers, MA, USA) to 8.5 mls of deionized water. In the 6-well plate, cells were washed twice with ice-cold PBS, lysed with 500 μL of cold lysis buffer and transferred to Eppendorf tubes. The KO cells were lysed immediately after being taken out of the liquid nitrogen stock. […] The total protein concentration of the lysate was determined using Direct Detect™ infrared (IR)-based quantification system. […]\n(§8) Different loading controls were used, depending on molecular weight and relative intensities of signal, and conditions were optimized accordingly. Protein samples were analyzed on a JESS/WES® (Simple Western system, Bio-Techne, Abingdon, UK) according to the manufacturer’s instructions (Protein Simple, Bio-Techne, Abingdon, UK) using a 12–230 kDa separation module. […]"}, "thymidylate synthase": {"tested_on": "thymidylate synthase", "assay": "Protein expression by Simple Western (WES/JESS) in Caco-2 cells: thymidylate synthase", "assay_type": "cell-based, human", "conditions": "24 h incubation; zosuquidar 5 µM, MK571 200 µM", "description": "as §7, §8"}, "[4]": {"tested_on": "Adenosylhomocysteinase (AHCY)", "assay": "Protein expression by Simple Western (WES/JESS) in Caco-2 cells: AHCY", "assay_type": "cell-based, human", "conditions": "2 and 24 h incubation; MK571 200 µM", "description": "as §7, §8"}, "[5]": {"tested_on": "Serine Hydroxymethyltransferase 1 (SHMT1)", "assay": "Protein expression by Simple Western (WES/JESS) in Caco-2 cells: SHMT1", "assay_type": "cell-based, human", "conditions": "2 and 24 h; MK571 200 µM", "description": "as §7, §8"}, "Pgp [6]": {"molecular_target": "T3, Pgp (Homo sapiens, UniProt P08183)", "T3 construct": "express major uptake and efflux transporters on the apical and basal membranes, including the key efflux transporters Pgp, BCRP and MRP2; host or cells: Caco-2 (HTB-37); C2BBe1 clone WT/KO cells from SOLVO Biotechnology for the knockout comparisons", "T3 sequence (P08183 whole entry)": "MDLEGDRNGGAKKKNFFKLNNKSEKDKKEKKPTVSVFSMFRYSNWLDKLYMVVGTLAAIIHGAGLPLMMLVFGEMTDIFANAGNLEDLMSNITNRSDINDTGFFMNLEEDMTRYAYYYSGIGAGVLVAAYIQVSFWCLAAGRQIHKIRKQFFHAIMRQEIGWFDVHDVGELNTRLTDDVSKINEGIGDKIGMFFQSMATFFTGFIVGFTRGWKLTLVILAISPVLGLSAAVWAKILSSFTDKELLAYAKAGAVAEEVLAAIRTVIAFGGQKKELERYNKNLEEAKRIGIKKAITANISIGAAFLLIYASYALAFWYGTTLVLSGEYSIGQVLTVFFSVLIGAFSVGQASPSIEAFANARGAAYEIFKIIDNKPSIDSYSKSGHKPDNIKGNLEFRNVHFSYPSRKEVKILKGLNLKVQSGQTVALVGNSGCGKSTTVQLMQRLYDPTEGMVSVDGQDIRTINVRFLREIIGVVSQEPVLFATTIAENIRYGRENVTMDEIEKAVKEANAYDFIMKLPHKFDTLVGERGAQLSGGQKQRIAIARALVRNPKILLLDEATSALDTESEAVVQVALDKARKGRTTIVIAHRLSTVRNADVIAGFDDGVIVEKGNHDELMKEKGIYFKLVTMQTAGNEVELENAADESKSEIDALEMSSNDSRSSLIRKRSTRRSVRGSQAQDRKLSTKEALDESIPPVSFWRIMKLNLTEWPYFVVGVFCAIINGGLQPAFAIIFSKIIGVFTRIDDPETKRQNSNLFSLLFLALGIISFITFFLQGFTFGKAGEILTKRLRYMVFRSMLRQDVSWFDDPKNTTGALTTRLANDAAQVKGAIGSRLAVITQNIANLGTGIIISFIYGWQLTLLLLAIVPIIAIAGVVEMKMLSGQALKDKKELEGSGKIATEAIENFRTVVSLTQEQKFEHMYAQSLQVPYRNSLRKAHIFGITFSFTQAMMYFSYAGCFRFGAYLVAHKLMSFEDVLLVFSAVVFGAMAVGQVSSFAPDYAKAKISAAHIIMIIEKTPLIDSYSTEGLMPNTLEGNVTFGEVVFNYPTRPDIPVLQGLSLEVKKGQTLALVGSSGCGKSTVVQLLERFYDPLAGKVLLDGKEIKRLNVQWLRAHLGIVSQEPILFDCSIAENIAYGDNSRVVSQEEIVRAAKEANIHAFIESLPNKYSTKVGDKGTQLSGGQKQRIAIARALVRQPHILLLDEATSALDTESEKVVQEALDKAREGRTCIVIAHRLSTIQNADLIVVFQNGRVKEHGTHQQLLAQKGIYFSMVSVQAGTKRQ", "assay": "Caco-2 bidirectional transport of Pgp probe indinavir with/without inhibitor or in Pgp KO cells", "assay_type": "cell-based", "conditions": "for specificity of Pgp inhibition among Pgp, BCRP and MRP2 (functional experiments): zosuquidar 10 µM, valspodar 50 nM", "description": "as §1\n(§9) For Pgp and BCRP functional analysis, a 75 µL aliquot of the samples was collected from both the donor and acceptor compartments and transferred to a new 96-well microplate (V bottom) containing 75 µL of methanol. 10 µL from the mixture was collected and transferred to a new plate containing 90 µL of 50:50 methanol/water. The concentration of probe substrates in the samples was then quantified using LC-MS.\nThe flow rate was 0.6 mL/min, and the total run time was 3.5 min. The sample injection volume was 2 μL. Sample data were acquired using Analyst software.\nas §2, §3, §4"}, "BCRP [7]": {"molecular_target": "T2, BCRP", "assay": "Caco-2 bidirectional transport of BCRP probe estrone-3-sulfate with/without inhibitor or in BCRP KO cells", "assay_type": "cell-based", "parameters": "express major uptake and efflux transporters on the apical and basal membranes, including the key efflux transporters Pgp, BCRP and MRP2; host or cells: Caco-2 (HTB-37); C2BBe1 clone WT/KO cells from SOLVO Biotechnology for the knockout comparisons", "conditions": "C2BBe1 Caco-2 BCRP KO vs WT", "description": "as §1, §9\nThe flow rate was 0.6 mL/min, and the total run time was 3.5 min. […]\nas §2, §3\nPgp, BCRP and MRP2 knockout (stable) Caco-2 cells (C2BBe1) were kindly provided by SOLVO Biotechnology (Szeged, Hungary). […] After transport experiments, metabolites were extracted from Caco-2 cells and analyzed according to the protocols described below."}, "Pgp [8]": {"molecular_target": "T3, Pgp", "assay": "Intracellular LC-MS metabolomic signature and inhibition score for Pgp in Caco-2 cells", "assay_type": "cell-based", "conditions": "some of the metabolites", "description": "as §5, §6\nFor example, for Pgp, the percentage changes in Pgp signature metabolites with Pgp inhibition were summed to calculate a Pgp inhibition score for that inhibitor."}, "methionine synthase": {"tested_on": "methionine synthase", "assay": "Protein expression by Simple Western (WES/JESS) in Caco-2 cells: methionine synthase", "assay_type": "cell-based, human", "conditions": "2 and 24 h incubation; zosuquidar 5 µM", "description": "as §7, §8"}, "[9]": {"parameters": "method as in PMID 33312947", "conditions": "trials testing efficacy against multidrug resistance; cited from earlier work"}}}
{"compound": "5(6)-carboxy-2′,7′-dichlorofluorescein [CDCF]", "values": [{"measurement": "efflux ratio in MRP2 KO cells in comparison with wild type cells", "setting": "MRP2 [1]; C2BBe1 Caco-2 MRP2 KO vs WT", "value": "reduced"}]}
{"compound": "COc1ccc2c3c([nH]c2c1)[C@H](C=C(C)C)N1C(=O)[C@@H]2CCCN2C(=O)[C@@H]1C3", "note": "[Fumitremorgin C]", "values": [{"measurement": "intracellular levels of glutamate, hypoxanthine and xanthine", "setting": "BCRP [2]", "value": "decreased"}, {"measurement": "intracellular pantothenate levels", "setting": "BCRP [2]", "value": "increased"}]}
{"compound": "CN(C)C(=O)CCSC(SCCC(=O)O)c1cccc(/C=C/c2ccc3ccc(Cl)cc3n2)c1", "note": "(stereo not drawn) [MK571]", "values": [{"measurement": "specificity of MRP2 inhibitors (functional assessment, Supplementary Table S1)", "setting": "MRP2 [1]", "value": "lack of specificity"}, {"measurement": "CDCF efflux in presence of inhibitor", "setting": "MRP2 [1]; Caco-2 monolayer, CDCF 10 µM, 2 h", "value": "markedly reduced"}, {"measurement": "change of MRP2 signature metabolites with increasing inhibitor concentration", "setting": "MRP2 [3]", "value": "concentration-dependent change"}, {"measurement": "MTHFR protein expression", "setting": "MTHFR", "value": "significant decrease"}, {"measurement": "thymidylate synthase expression", "setting": "thymidylate synthase", "value": "reduced"}, {"measurement": "Adenosylhomocysteinase (AHCY) protein levels", "setting": "[4]", "value": "significantly reduced"}, {"measurement": "Serine Hydroxymethyltransferase 1 (SHMT1) expression", "setting": "[5]", "value": "significant reduction"}]}
{"compound": "CCc1oc2ccccc2c1C(=O)c1cc(Br)c(O)c(Br)c1", "note": "[benzbromarone, Benzbromarone]", "values": [{"measurement": "specificity of MRP2 inhibitors (functional assessment, Supplementary Table S1)", "setting": "MRP2 [1]", "value": "lack of specificity"}]}
{"compound": "CN(C)CCCN1c2ccccc2Sc2ccc(Cl)cc21", "note": "[chlorpromazine]", "values": [{"measurement": "Pgp inhibition compared to other additional inhibitors", "setting": "Pgp [6]; validation inhibitors of Figure 5C", "value": "weaker interaction with Pgp"}]}
{"compound": "C[C@]12CC[C@@H]3c4ccc(OS(=O)(=O)O)cc4CC[C@H]3[C@@H]1CCC2=O", "note": "[estrone-3-sulfate]", "values": [{"measurement": "efflux ratio in BCRP KO cells in comparison with wild type cells", "setting": "BCRP [7]", "value": "reduced"}]}
{"compound": "C/C=C/C[C@@H](C)C(=O)[C@H]1C(=O)N[C@@H](C(C)C)C(=O)N(C)CC(=O)N(C)[C@@H](CC(C)C)C(=O)N[C@@H](C(C)C)C(=O)N(C)[C@@H](CC(C)C)C(=O)N[C@@H](C)C(=O)N[C@H](C)C(=O)N(C)[C@@H](CC(C)C)C(=O)N(C)[C@@H](CC(C)C)C(=O)N(C)[C@@H](C(C)C)C(=O)N1C", "note": "[valspodar]", "values": [{"measurement": "specificity of Pgp inhibition among Pgp, BCRP and MRP2 (functional experiments)", "setting": "Pgp [6]", "value": "specifically inhibit Pgp"}]}
{"compound": "O[C@@H](COc1cccc2ncccc12)CN1CCN([C@@H]2c3ccccc3[C@@H]3[C@H](c4ccccc42)C3(F)F)CC1", "note": "[zosuquidar]", "values": [{"measurement": "transcellular transport of indinavir in presence of inhibitor", "setting": "Pgp [6]; Caco-2 monolayer, indinavir 10 µM, 2 h", "value": "inhibited"}, {"measurement": "specificity of Pgp inhibition among Pgp, BCRP and MRP2 (functional experiments)", "setting": "Pgp [6]", "value": "specifically inhibit Pgp"}, {"measurement": "change of Pgp signature metabolites with increasing inhibitor concentration", "setting": "Pgp [8]", "value": "concentration dependent change"}, {"measurement": "MTHFR protein expression", "setting": "MTHFR", "value": "increase"}, {"measurement": "thymidylate synthase expression", "setting": "thymidylate synthase", "value": "reduced"}, {"measurement": "methionine synthase expression", "setting": "methionine synthase", "value": "increase"}, {"measurement": "toxicity observed in clinical trials", "setting": "[9]", "value": "neurotoxicity"}]}
